# According to PMC2361324, “Phase 1 trial of the antiangiogenic peptide ATN-161 (Ac-PHSCN-NH2), a beta integrin antagonist, in patients with solid tumours” (British Journal of Cancer, 2006):
# Where two headings read alike, the source gives them in different places.
# Experiments:
# [1] = Urinary excretion and renal clearance in phase 1 trial; format: in vivo, human; details: urine; for dose excreted: human, iv
# Protocol: (§3) Blood samples for PK analysis were collected in EDTA-coated tubes on Day 1 for all patients preinfusion, at the end of infusion, and at 5, 10, 15, 30, 45, 60, 90, 120, 150, 180, 240, 400, 460 and 520 min after infusion. Samples were immediately centrifuged, and the plasma was separated and stored at −20°C prior to analysis.
# (§4) Pharmacokinetic data were modelled using a noncompartmental approach to estimate individual subject values for the following parameters: maximum observed concentration (Cmax), time of the maximum observed concentration (Tmax), volume of distribution at steady state (VSS), terminal elimination half-life (t1/2), total systemic clearance (CL), area under the plasma concentration-time curve (AUC), and CLr. For these parameters the mean and s.d. coefficient of variation were calculated.
# (§5) Descriptive PKs parameters were determined by standard model independent methods for infusion administration ([Perrier and Gibaldi, 1982]) from plasma concentrations in each individual patient. Plasma and urine concentrations were rounded to the nearest [drawing 1] ng ml^−1 before the calculations. Plasma samples with concentrations below the quantifiable limit of 50.0 ng ml^−1 (BQL) were assigned values of zero for generation of mean and s.d. plasma concentrations. For PKs calculations, BQL was treated as zero up to the first quantifiable plasma concentration and then treated as an empty value thereafter. Urine samples reported as BQL (⩽50.0 ng ml^−1) were treated as zero for all calculations. Actual patient blood collection sampling times relative to the start of infusion were used for PKs calculations; however, scheduled collection times were used for urinary excretion data and graphical presentations of all data.
# [2] = test system: advanced solid tumours; experiment: Clinical response by RECIST in phase 1 trial; format: in vivo, human
# Protocol: During treatment, patients were evaluated monthly with physical examinations including toxicity assessment using the CTC, ECOG PS, serum chemistry, haematology and coagulation testing. Tumour burden was reassessed every two cycles (8 weeks) by physical exam or radiological methods as appropriate using RECIST ([Therasse et al, 2000]).
# [3] = Serological antibody immune response against ATN-161 in patients; format: in vivo, human
# [4] = test system: DU145 prostate cancer cell line; details: in vitro, human DU145 prostate cancer cell line; ref Livant et al, 2000b; cited from earlier work
# Text: (§1) In vitro, ATN-161 inhibited PHSRN-induced basement membrane invasion of human (DU145) and rat (MLL) prostate cancer cell lines ([Livant et al, 2000b]).
# [5] = test system: MLL prostate cancer cell line; details: in vitro, rat MLL prostate cancer cell line; ref Livant et al, 2000b; cited from earlier work
# Text: as §1
# [6] = test system: MLL tumours; details: Copenhagen rats, ref Livant et al, 2000b, cited from earlier work
# [7] = test system: MLL cells; details: attempts to show induction; ref Livant et al, 2000b; cited from earlier work
# [8] = animal studies, preclinical; ref not given; cited from earlier work
# [9] = except at extremely high, supratherapeutic doses, ref not given, cited from earlier work
# Text: These preclinical animal models included assessment of the effects of ATN-161 on tumour growth, metastasis, angiogenesis, tumour perfusion and circulating endothelial progenitor cells (CEPs) ([Donate et al, 2003]). […] We designed the phase 1 trial to evaluate a dose range in human beings (using well-established rules for interspecies dose conversi ...
# [10] = test system: integrin beta subunits; details: ref Donate et al, 2003; cited from earlier work
# Text: (§2) ATN-161 is a noncompetitive inhibitor of the fibronectin PHSRN sequence, in which a cysteine residue has been substituted for arginine along with peptide acetylation and amidation in order to yield a product with acceptable pharmaceutical properties (Ac-PHSCN-NH2). […] Thus, ATN-16 ...
# [11] = test system: integrin-dependent adhesion; details: ref Plunkett and Mazar, 2002, Plunkett et al; cited from earlier work
# Text: as §2
# [12] = Plasma pharmacokinetics in phase 1 trial; details: human, iv; for Vd: patients, Day 1, HPLC-MS/MS, noncompartmental, cohort mean
# Protocol: as §3, §4, §5
substance,measurement,setting,value
"Ac-PHSCN-NH2 [ATN-161, Ac-PHSCN-NH2]",time after dose administration in which the majority of the dose was excreted,[1]; almost all patients (23 of 26),≤ 2 h
same,dose excreted,"[1]; 0.1 mg/kg, patients, 0.1 mg kg^−1 10-min i.v. infusion, Day 1, HPLC-MS/MS, cohort mean, read-out: Urinary excretion between 0 and 7 h as a percent of dose",2.46%
same,dose excreted,"[1]; 0.25 mg/kg, patients, 0.25 mg kg^−1 10-min i.v. infusion, Day 1, HPLC-MS/MS, cohort mean, read-out: Urinary excretion between 0 and 7 h as a percent of dose",13.8%
same,dose excreted,"[1]; 0.5 mg/kg, patients, 0.5 mg kg^−1 10-min i.v. infusion, Day 1, HPLC-MS/MS, cohort mean, read-out: Urinary excretion between 0 and 7 h as a percent of dose",25.3%
same,dose excreted,"[1]; 1 mg/kg, patients, 1 mg kg^−1 10-min i.v. infusion, Day 1, HPLC-MS/MS, cohort mean, read-out: Urinary excretion between 0 and 7 h as a percent of dose",1.82%
same,dose excreted,"[1]; 2 mg/kg, patients, 2 mg kg^−1 10-min i.v. infusion, Day 1, HPLC-MS/MS, cohort mean, read-out: Urinary excretion between 0 and 7 h as a percent of dose",2.35%
same,dose excreted,"[1]; 4 mg/kg, patients, 4 mg kg^−1 10-min i.v. infusion, Day 1, HPLC-MS/MS, cohort mean, read-out: Urinary excretion between 0 and 7 h as a percent of dose",2.36%
same,dose excreted,"[1]; 8 mg/kg, patients, 8 mg kg^−1 10-min i.v. infusion, Day 1, HPLC-MS/MS, cohort mean, read-out: Urinary excretion between 0 and 7 h as a percent of dose",17.5%
same,dose excreted,"[1]; 16 mg/kg, patients, 16 mg kg^−1 10-min i.v. infusion, Day 1, HPLC-MS/MS, cohort mean, read-out: Urinary excretion between 0 and 7 h as a percent of dose",15.3%
same,dose excreted,"[1]; majority of the patients (20 of 26), all dose levels, urine 0-7 h, read-out: Urinary excretion, percent of administered dose",~2%
same,dose excreted,"[1]; remaining six of 26 patients, not associated with dose level, urine 0-7 h, read-out: Urinary excretion, percent of administered dose",20 to 50%
same,Objective response as defined by RECIST,"[2]; 26 patients, 0.1-16 mg kg^−1 thrice weekly i.v.",No patient in the study had an objective response
same,Fraction of patients with prolonged stable disease,"[2]; patients in the study, all dose levels",1/3
same,Patients with stable disease of >4 months,"[2]; six of the 26 treated patients, 0.1-16 mg kg^−1 thrice weekly i.v.",23%
same,Antibody immune response against ATN-161,[3],no serological evidence
same,PHSRN-induced basement membrane invasion,[4],inhibited
same,PHSRN-induced basement membrane invasion,[5],inhibited
same,Growth of primary MLL tumours,"[6]; systemic 5 mg kg^−1, five injections over 16 days",markedly reduced
same,Ability of MLL tumour cells to metastasise,[6],inhibited
same,Induction of apoptosis in MLL cells,[7],unsuccessful
same,Immunogenicity,[8],not immunogenic
same,Toxicity in preclinical toxicology studies,[9]; primates,no consistent evidence of ATN-161 toxicity
same,Toxicity in preclinical toxicology studies,[9]; rats,no consistent evidence of ATN-161 toxicity
same,Binding to integrin subunits,[10],binds exclusively to integrin beta subunits
same,Block of integrin-dependent adhesion,[11],does not block
same,AUC(0-t),[12]; 0.25 mg/kg,3420 ng·h/mL
same,Cmax,[12]; 0.25 mg/kg,1120 ng/mL
same,MRT,[12]; 0.25 mg/kg,5.5 h
same,clearance,[12]; 0.25 mg/kg,1.33 mL/min/kg
same,half-life,[12]; 0.25 mg/kg,4.4 h
same,Vd,"[12]; 0.25 mg/kg, Vd (volume of distribution), 0.25 mg kg^−1 10-min i.v. infusion",0.48 L/kg
same,Vd,"[12]; 0.25 mg/kg, Vss (volume of distribution at steady state), 0.25 mg kg^−1 10-min i.v. infusion",0.33 L/kg
same,AUC(0-t),[12]; 0.5 mg/kg,3610 ng·h/mL
same,Cmax,[12]; 0.5 mg/kg,5790 ng/mL
same,MRT,[12]; 0.5 mg/kg,3.3 h
same,clearance,[12]; 0.5 mg/kg,2.83 mL/min/kg
same,half-life,[12]; 0.5 mg/kg,3.2 h
same,Vd,"[12]; 0.5 mg/kg, Vd (volume of distribution), 0.5 mg kg^−1 10-min i.v. infusion",0.87 L/kg
same,Vd,"[12]; 0.5 mg/kg, Vss (volume of distribution at steady state), 0.5 mg kg^−1 10-min i.v. infusion",0.47 L/kg
same,AUC(0-t),[12]; 1 mg/kg,1450 ng·h/mL
same,Cmax,[12]; 1 mg/kg,3800 ng/mL
same,MRT,[12]; 1 mg/kg,3.8 h
same,clearance,[12]; 1 mg/kg,10.2 mL/min/kg
same,half-life,[12]; 1 mg/kg,3.9 h
same,Vd,"[12]; 1 mg/kg, Vd (volume of distribution), 1 mg kg^−1 10-min i.v. infusion",3.38 L/kg
same,Vd,"[12]; 1 mg/kg, Vss (volume of distribution at steady state), 1 mg kg^−1 10-min i.v. infusion",2.3 L/kg
same,AUC(0-t),[12]; 2 mg/kg,3320 ng·h/mL
same,Cmax,[12]; 2 mg/kg,15700 ng/mL
same,MRT,[12]; 2 mg/kg,2.5 h
same,clearance,[12]; 2 mg/kg,11.5 mL/min/kg
same,half-life,[12]; 2 mg/kg,3.5 h
same,Vd,"[12]; 2 mg/kg, Vd (volume of distribution), 2 mg kg^−1 10-min i.v. infusion",3.38 L/kg
same,Vd,"[12]; 2 mg/kg, Vss (volume of distribution at steady state), 2 mg kg^−1 10-min i.v. infusion",1.93 L/kg
same,AUC(0-t),[12]; 4 mg/kg,3710 ng·h/mL
same,Cmax,[12]; 4 mg/kg,5480 ng/mL
same,MRT,[12]; 4 mg/kg,4.8 h
same,clearance,[12]; 4 mg/kg,14.5 mL/min/kg
same,half-life,[12]; 4 mg/kg,4.3 h
same,Vd,"[12]; 4 mg/kg, Vd (volume of distribution), 4 mg kg^−1 10-min i.v. infusion",5.59 L/kg
same,Vd,"[12]; 4 mg/kg, Vss (volume of distribution at steady state), 4 mg kg^−1 10-min i.v. infusion",3.82 L/kg
same,AUC(0-t),[12]; 8 mg/kg,34200 ng·h/mL
same,Cmax,[12]; 8 mg/kg,34400 ng/mL
same,MRT,[12]; 8 mg/kg,3.4 h
same,clearance,[12]; 8 mg/kg,7 mL/min/kg
same,half-life,[12]; 8 mg/kg,3.3 h
same,Vd,"[12]; 8 mg/kg, Vd (volume of distribution), 8 mg kg^−1 10-min i.v. infusion",2.14 L/kg
same,Vd,"[12]; 8 mg/kg, Vss (volume of distribution at steady state), 8 mg kg^−1 10-min i.v. infusion",1.32 L/kg
same,AUC(0-t),[12]; 16 mg/kg,54900 ng·h/mL
same,Cmax,[12]; 16 mg/kg,72700 ng/mL
same,MRT,[12]; 16 mg/kg,5.3 h
same,clearance,[12]; 16 mg/kg,5.83 mL/min/kg
same,half-life,[12]; 16 mg/kg,5 h
same,Vd,"[12]; 16 mg/kg, Vd (volume of distribution), 16 mg kg^−1 10-min i.v. infusion",2.36 L/kg
same,Vd,"[12]; 16 mg/kg, Vss (volume of distribution at steady state), 16 mg kg^−1 10-min i.v. infusion",1.61 L/kg
